Columns and labels:
[1] = test system: A2780 cells; assay: Northern analysis of stathmin mRNA after adriamycin treatment; assay type: cell-based, human; conditions: A2780, adriamycin, 12 hours, data not shown
Description: (§1) Sub-confluent cultures of MCF 7 and A2780 cells were treated with 100 nM trichostatin A (TSA, Sigma)for 2 hours, followed by incubation with 0.5 ug/ml adriamycin (doxorubicin, Sigma) for the indicated timepoints. Va15 cells grown at 39 degrees were treated with 100 nM TSA for two hours, followed by temperature shift to 32 degrees for 12 hours. p53 induction was monitored by western analysis of 100 ug protein as described (Murphy et al., Genes & Devel. 10:2971–2980, 1996), using 0.1ug/ml DO-1 (Ab-6, Calbiochem) or 421 (Ab-1, Calbiochem). MDM2 induction was monitored using the monoclonal antibody 2A10, kindly provided by Arnold Levine (Rockefeller University). For UV treatments, cells were irradiated with 4 J/m2 of UV-C with a Spectroline X series ultraviolet lamp, and output was monitored with a traceable UV light meter (Fisher Scientific). For ALLN treatment, MCF-7 cells were treated with 50 uM ALLN (calpain I inhibitor, Sigma) made in DMSO (dimethyl sulfoxide, Sigma) or with DMSO alone for 2 hours prior to harvesting.
(§2) Total RNA was isolated from cells using CsC1 purification (Murphy et al., Genes & Devel. 10:2971–2980, 1996) or using Trizol, as per the manufacturer (Gibco/BRL). Northern analyses were performed as described (Murphy et al., Genes & Devel. 10:2971–2980, 1996). Probes for Northerns were radio labeled using random primers (Prime-It-II, Stratagene) and α^32P dCTP (NEN). Autoradiographs were quantitated using NIH image software. The average values from three independent experiments were plotted onto bar graphs following normalization to GAPDH.
(§3) To extend these observations, the human tumor derived cell lines MCF7 (breast carcinoma)and A2780 (ovarian carcinoma) were analyzed following treatment with adriamycin to activate the endogenous, wild type p53 protein. Because of difficulties detecting human Map4 message, we analyzed the mRNA levels of stathmin (also called oncoprotein 18). We recently identified stathmin as a p53-repressed gene. A time course of treatment of MCF-7 cells with the DNA-damaging agent adriamycin (doxorubicin, DOX) results in approximately 30% reduction of stathmin RNA levels after 8 hours and 75% reduction after 24 hours. We chose to focus further on the 12 hour timepoint of adriamycin treatment, where 50% repression of stathmin was evident, in order to limit the toxicity sometimes associated with TSA (Yoshida et al., J Biol Chem 265:17174–17179, 1990). […] The results of three independent experiments indicate that the repression of stathmin expression evident after 12 hours of adriamycin treatment is completely abrogated by incubation with TSA. In contrast, neither the post-translational stabilization of p53 by adriamycin (DOX) nor the induction of the p53 response genes mdm2 and p21/waf1 were affected by TSA. […] We have performed identical experiments in A2780 cells (ovarian carcinoma, wt p53).

[2] = test system: MCF-7 cells; assay: as above; assay type: cell-based, human; conditions: MCF-7, adriamycin 0.5 ug/ml
Description: as §1, §2, §3

[3] = test system: H1299 human lung adenocarcinoma; assay: Northern analysis of stathmin mRNA in p53-null cells; assay type: cell-based; conditions: H1299, null for p53
[4] = test system: Saos2 (p53-null) and U20S (wt p53); assay: Western analysis of survivin after doxorubicin in osteosarcoma lines; assay type: cell-based, human; conditions: Saos2 (p53-null) versus U20S (wt p53), doxorubicin treatment
Description: (§4) MCF-7 cells were maintained in RPMI-1640 supplemented with 10% fetal bovine serum and 100 units/ml of penicillin and streptomycin. The human melanoma cell line CaCl, and the derivative clone expressing the HPV E6 gene, were cultured as described (Ahn et al., Oncogene). The human osteosarcoma cell lines Saos-2 and U2-OS (kindly provided by Peter Adams, Fox Chase Cancer Center), the murine p21 knock-out fibroblasts (kindly provided by James Sherley, MIT) and the human lung adenocarcinoma cell line H1299 were cultured in DMEM supplemented with 10% fetal bovine serum and 100 units/ml of penicillin and streptomycin. […] For treatment with ultra-violet light, cells were irradiated with 0–10 J/m2 (as noted) of UV-C with a Spectroline X series ultraviolet lamp, and output was monitored with a traceable UV light meter (Fisher Scientific). For drug treatment, cells were treated with 0.5ug/ml adriamycin (doxorubicin, Sigma), or dilution vehicle alone, for twenty-four hours. p53 induction was monitored by western analysis of 100 ug protein as described (Murphy et al., Genes & Devel. 10:2971–2980, 1996), using 0.1ug/ml DO-1 (Ab-6, Calbiochem) or 421 (Ab-1, Calbiochem.
(§5) Western analysis was performed essentially as described (Murphy et al., 1999). […] Protein concentrations were determined using the Bio-Rad Dc Protein Assay (Bio-Rad). […]

[5] = test system: CaCl and CaCl/E6; assay: Western analysis of survivin after doxorubicin in melanoma line with or without HPV E6; assay type: cell-based, human; conditions: CaCl versus CaCl/E6, doxorubicin treatment
Description: as §4, §5

Q: Which “repression of stathmin expression” value [1] does the source give for `COc1cccc2c1C(=O)c1c(O)c3c(c(O)c1C2=O)C[C@@](O)(C(=O)CO)C[C@@H]3O[C@H]1C[C@H](N)[C@H](O)[C@H](C)O1` [adriamycin, doxorubicin] here?
A: The value was “approximately 50%”.

Q: And the “reduction of stathmin RNA levels” value ([2]; 8 hours)?
A: Its value is “approximately 30%”.

Q: What about the repression of stathmin ([2]; 12 hours) of the same molecule?
A: Its repression of stathmin is 50%.

Q: What about the “reduction of stathmin RNA levels” value ([2]; 24 hours) of the same molecule?
A: Its value is roughly 75%.

Q: What about the “effect on stathmin levels” value [3] of the same molecule?
A: Its value is “neither TSA nor adriamycin had any effect on stathmin levels”.

Q: What about the survivin protein levels [4] of the same molecule?
A: Its survivin protein levels is “decreased survivin protein levels only in cells with wt p53 (U20S)”.

Q: What about the survivin protein levels [5] of the same molecule?
A: Its survivin protein levels is “down-regulation of survivin protein levels only in parental CaCl cells”.
